Among the data in article PMC6315349 (2018) are binding values, retold here.

What all share (experiment): fluorescence turn-on
Assay [1] deals with RNA half adder + AND_DNA inhibitor + XOR_DNA inhibitor (0-0) (DNA:RNA, aptamer) GGUGCCCGCUGACCGGAGACGGUCAAAUAGAGCACAGGAUGGUAACGAAUGACCAGCCCGAGGUCGCGACCUUCUUUUCCCUCGCGACUCGAAAUGUUUCUUUUCGAGGUCGCCCCGUAUCUGUCGAGUAGAGUGUGGGCUCGCACGCGGCUGCC/GGCGGCTGCCGCGCAGAGACGGUCGGGUCCAGAUAUUGGAUCUUUCGCCUUUUCGCGAUACGGGCCAACGAUGGGUUUUGAAGGUCGCGACAAGGGCUGGTCCGACAUCCCACACAAATAGAGTGTGGGCCGAGCAGCGGCACC/GGUGCCCGCUGACCGGAGACGGUCAAAUAGAGCACAGGAUGGUAACGAAUGACCAGCCCGAGGGCGACCUCGUUUUGUACCAGCAUCCUCUUCAUAAGUUUUGGCGAAAGAUCCCGUAUCUGUCGAGUAGAGUGUGGGCUCGCACGCGGCUGCC/GGCGGCUGCCGCGCAGAGACGGUCGGGUCCAGAUAUUGGGCGACCUCGUUUUCCGGGAUAUGGUCUCGGCCAACUUUUCGAGGUCGCCCAAGGGCUGGUCCGACAUCCCACACAAAUAGAGUGUGGGCCGAGCAGCGGCAGC/GGAUGCUGGUACUUUUGUUGGCCGAGACCAUAUCCCGGUUUUGAAACAUUUCGAGUCGCGAGGGUUUUCCCAUCGUUGGCCCGUAUCGCGUUUUCUUAUGAAGA/ATAACAGCGCGTAGGGCCACGCTGCCGCTGCTCGGCCCACACTCTATTTGACCGGGATGTCGGACCAGCTGGTCATTCCTTACCATCCCACACTCTATTTGACCGTCTCCGGTCAGCGGGCAGGCGAGCCCTACGCGCTGTTAT/GGCAGCCGCGTGTGCCGCTGGCTCGGCCACACTCTATTTGACCGTCCGGTGCGAGCTGCGCGGCGAGCCCTA
The settings on record: 22 °C, 1 μM RNA strands, 2 μM each inhibitor, 5 μM dye.

Assay [2] deals with OR gate + OR_input B (0-1) (DNA:RNA, aptamer) GGUUUCAACCUUUGCAAACAUGCUUUGGAUGGUAACGAAUGACCAGCCCGAAAGGGCUGGUCCGACAUCCUUUGGGAAAUCCUUUGGGUGCCGUUU/AAACGGCGTCCAAAGGATTTCCC
The note with it: 100 mM NaCl, 10 mM MgCl2; 50 mM Tris pH 8.0, 22 °C; 1 μM RNA, 2 μM dye, 2 μM each input; output ON.

The test system of assay [3] is NOR gate + NOR_input A + NOR_input B (1-1) (DNA:RNA, aptamer) GGUUUGCAAACAUGCUUUGGAUGGUAACGAAUGACCAGCCCGAAAGGGCUGGUCCGACAUCCUUUGGGAAAUCCUUU/CCATCCAAAGCATGTTTGCAAA/AAAGGATTTCCCAAAGGATGTCGGACC
The settings on record: 100 mM NaCl, 10 mM MgCl2; 50 mM Tris pH 8.0, 22 °C; 1 μM RNA, 2 μM dye, 2 μM each input; output OFF.

Assay [4] deals with AND gate + AND_input B (0-1) (DNA:RNA, aptamer) GGUUUCAACCUUUGCAAACAUGCUUUGGAUGGUAACGAAUGACCAGCCCGAAAGGGCUGGUCCGACAUCCUUUGGGAAAUCCUUUGGGUGCCGUUU/AAACAGCGTCCAGAGGAT
The settings on record: 100 mM NaCl, 10 mM MgCl2; 50 mM Tris pH 8.0, 22 °C; 2 μM dye, 2 μM input; output OFF (<60% normalized).

The subject of assay [5] is NAND gate + NAND input B (0-1) (DNA:RNA, aptamer) GGUUUGCAAACAUGCUUUGGAUGGUAACGAAUGACCAGCCCGAAAGGGCUGGUCCGACAUCCUUUGGGAAAUCCUUU/TTGATTTCCCTTTGGT
The note with it: 100 mM NaCl, 10 mM MgCl2; 50 mM Tris pH 8.0, 22 °C; 2 μM dye; fluorescence slightly higher than without input.

Assay [6] concerns AND gate + AND_input A (1-0) (DNA:RNA, aptamer) GGUUUCAACCUUUGCAAACAUGCUUUGGAUGGUAACGAAUGACCAGCCCGAAAGGGCUGGUCCGACAUCCUUUGGGAAAUCCUUUGGGUGCCGUUU/GTAAGCTTTGGTTGA …. The note with it: 100 mM NaCl, 10 mM MgCl2; 50 mM Tris pH 8.0, 22 °C; 2 μM dye, 2 μM input; output OFF (<60% normalized).
Assay [7] relates to RNA AND/OR gate (no inputs, 0-0) (RNA, aptamer) GGUUUCAACCUUUGCAAACAUGCUUUGGAUGGUAACGAAUGACCAGCCCGAAAGGGCUGGUCCGACAUCCUUUGGGAAAUCCUUUGGGUGCCGUUU
The note with it: 100 mM NaCl, 10 mM MgCl2; 50 mM Tris pH 8.0, 22 °C; 1 μM RNA, 2 μM dye; output OFF (<60% normalized).

Assay [8] has as its system AND gate + AND_input A + AND_input B (1-1) (DNA:RNA, aptamer) GGUUUCAACCUUUGCAAACAUGCUUUGGAUGGUAACGAAUGACCAGCCCGAAAGGGCUGGUCCGACAUCCUUUGGGAAAUCCUUUGGGUGCCGUUU/GTAAGCTTTGGTTGA/AAACAGCGTCCAGAGGAT
The note with it: 100 mM NaCl, 10 mM MgCl2; 50 mM Tris pH 8.0, 22 °C; 1 μM RNA, 2 μM dye, 2 μM each input; output ON.

In assay [9] the test system is OR gate + OR_input A + OR_input B (1-1) (DNA:RNA, aptamer) GGUUUCAACCUUUGCAAACAUGCUUUGGAUGGUAACGAAUGACCAGCCCGAAAGGGCUGGUCCGACAUCCUUUGGGAAAUCCUUUGGGUGCCGUUU/GCATGTTTGCAAAGGTTGAAA/AAACGGCGTCCAAAGGATTTCCC
The note with it: 100 mM NaCl, 10 mM MgCl2; 50 mM Tris pH 8.0, 22 °C; 1 μM RNA, 2 μM dye, 2 μM each input; output ON.

Assay [10] deals with NOR gate + NOR_input B (0-1) (DNA:RNA, aptamer) GGUUUGCAAACAUGCUUUGGAUGGUAACGAAUGACCAGCCCGAAAGGGCUGGUCCGACAUCCUUUGGGAAAUCCUUU/AAAGGATTTCCCAAAGGATGTCGGACC
The settings on record: 100 mM NaCl, 10 mM MgCl2; 50 mM Tris pH 8.0, 22 °C; 1 μM RNA, 2 μM dye, 2 μM each input; output OFF.

In assay [11] the test system is OR gate + OR_input A (1-0) (DNA:RNA, aptamer) GGUUUCAACCUUUGCAAACAUGCUUUGGAUGGUAACGAAUGACCAGCCCGAAAGGGCUGGUCCGACAUCCUUUGGGAAAUCCUUUGGGUGCCGUUU/GCATGTTTGCAAAGGTTGAAA
The note with it: 100 mM NaCl, 10 mM MgCl2; 50 mM Tris pH 8.0, 22 °C; 1 μM RNA, 2 μM dye, 2 μM each input; output ON.

For assay [12], the system named is NAND gate + NAND_input A + NAND input B (1-1) (DNA:RNA, aptamer) GGUUUGCAAACAUGCUUUGGAUGGUAACGAAUGACCAGCCCGAAAGGGCUGGUCCGACAUCCUUUGGGAAAUCCUUU/CTATAGCATGTTTGC/TTGATTTCCCTTTGGT
The settings on record: 100 mM NaCl, 10 mM MgCl2; 50 mM Tris pH 8.0, 22 °C; 2 μM dye; output OFF (<60% normalized).

The subject of assay [13] is NAND gate + NAND_input A (1-0) (DNA:RNA, aptamer) GGUUUGCAAACAUGCUUUGGAUGGUAACGAAUGACCAGCCCGAAAGGGCUGGUCCGACAUCCUUUGGGAAAUCCUUU/CTATAGCATGTTTGC
The note with it: 100 mM NaCl, 10 mM MgCl2; 50 mM Tris pH 8.0, 22 °C; 2 μM dye; fluorescence lower than without input.

For assay [14], the system named is NOR gate + NOR_input A (1-0) (DNA:RNA, aptamer) GGUUUGCAAACAUGCUUUGGAUGGUAACGAAUGACCAGCCCGAAAGGGCUGGUCCGACAUCCUUUGGGAAAUCCUUU/CCATCCAAAGCATGTTTGCAAA
The settings on record: 100 mM NaCl, 10 mM MgCl2; 50 mM Tris pH 8.0, 22 °C; 1 μM RNA, 2 μM dye, 2 μM each input; output OFF.

Assay [15] relates to RNA NAND/NOR gate (no inputs, 0-0) (RNA, aptamer) GGUUUGCAAACAUGCUUUGGAUGGUAACGAAUGACCAGCCCGAAAGGGCUGGUCCGACAUCCUUUGGGAAAUCCUUU
The note with it: 100 mM NaCl, 10 mM MgCl2; 50 mM Tris pH 8.0, 22 °C; 1 μM RNA, 2 μM dye; output ON.

Turning to `CC1=N/C(=C\c2cc(F)c(O)c(F)c2)C(=O)N1C`, the binding result in [1] (low fluorescence at 510 nm) is recorded as “no”.
Take `CN(C)c1ccc(C(=C2C=CC(=[N+](C)C)C=C2)c2ccccc2)cc1`: the binding result is reported as “yes” in assay [2]; “no” in assay [3]; “weak” in [4]; “yes” in assay [5]; “weak” in assay [6]; “no” in [7]. Besides, the binding entry is “yes” in assay [8]; “yes” in assay [9]; “no” in [10]; “yes” in [11]; “weak” in assay [12]; “yes” in assay [13]. Moreover, the values for the binding result in [1] (low fluorescence at 650 nm), in assay [14] and in assay [15] were “no”, “no” and “yes”, respectively.
